In US20130039928A1, “COMPOSITIONS AND METHODS FOR REVERSING CORTICOSTEROID RESISTANCE OR TREATING RESPIRATORY INFECTIONS” (priority 2010, published 2013):

Tested on: Pseudomonas aeruginosa
Test: Bacterial clearance by THP-1 macrophages
Format: cell-based
Conditions: after exposure with Poly(I) (10 μg/ml)
Excerpt: The above data collectively indicate that the activation of Nrf2 improves bacterial phagocytosis and clearance by COPD macrophages. The dependence of Nrf2 on bacterial phagocytosis was investigated. […] This observations confirmed Nrf2-dependent modulation of bacterial phagocytosis and clearance. To determine the mechanisms by which Nrf2 regulates phagocytosis, microarray analysis was employed. […] To address whether sulforaphane-induced expression of MARCO correlates with bacterial clearance, differentiated human THP-1 macrophages were used. Bacterial clearance by sulforaphane treated THP-1 macrophages after exposure with polyinosinic acid (Poly(I)) was analyzed. Poly(I) is a non-selective class A scavenger receptor blocker that inhibits MARCO mediated bacterial uptake and clearance (G. M. DeLoid, T. H. Sulahian, A. Imrich, L. Kobzik, PLoS One 4, e6209 (2009)). […] Next, phagocytosis of FITC-Pseudomonas aeruginosa was examined in THP-1 macrophages with knockdown of MARCO using lentivirus-encoded shRNA (MARCO shRNA).
BMDM were isolated by culturing bone marrow cells in the presence of 10 ng/ml granulocyte-macrophage colony-stimulating factor (PeproTech) for 7 days. Murine macrophages were cultured in RPMI 1640 medium supplemented with 10% FBS and 1% penicillin-streptomycin. […]

polyinosinic acid [Poly(I)]
bacterial clearance by sulforaphane treated THP-1 macrophages: significantly impaired sulforaphane ability to improve bacterial clearance
